Source: patent US9969761B2, “Stabilisation of radiopharmaceutical precursors” (GE HEALTHCARE LIMITED, priority 2004, dated 2018)
“And” between values parts separate entries of the source, which are not always exact repeats. Identical values can stand only once.

What was measured:
[1] = Purity by HPLC-UV after storage; type: physicochemical; details: dry powder; 2 weeks storage at 50° C.
Description: (§1) Filled and capped units are kept in storage at 25° C. and 50° C. in thermally controlled cabinets for set periods of time at which “pull points” a vial was removed from storage and subjected to the testing outlined below.
(§2) Non-radioactive methods (cold) performed: • Appearance/organoleptic test, all pull points • Purity by HPLC-UV, all pull points • ^19F-NMR, all pull points • Water content analysis, at time zero.
HPLC Method: octadecylsilyl silica gel (5 μm) column (Hichrom Nucleosil 100-5C18), temperature 25° C.; injection volume 20 μl; mobile phase of water: acetonitrile gradient, 1 ml/min. Detection by spectrophotometer at 220 nm.
HPLC-UV traces for the solid mannose triflate control experiment and the acetonitrile solution of mannose triflate are shown in FIGS. 1 and 2 respectively. Mannose triflate elutes at 32.5 minutes.

IR of stored dry powder = type: physicochemical; details: 2 weeks storage at 50° C.
[2] = Comparative example: radiolabelling of stored dry powder mannose triflate, RCP by ITLC; type: physicochemical; details: for % RCP: dry powder
Description: Dry powder mannose triflate was stored in vials at different temperatures and for different time periods.
A solution of potassium carbonate (41 mg of potassium carbonate in 40 μl water) was added to a glassy carbon reactor and then a solution of kryptofix 222 (19.4 mg in 320 μl) was added separately. Then a solution of 18-fluoride in water (0.05 ml) was added and the solution dried by heating to 80° C. for 4 mins with a flow of dry nitrogen (at 0.3 liters/min). A solution of 1,3,4,6-tetra-O-acetyl-2-O-trifluoromethanesulfonyl-β-D-mannopyranose (20 mg in 1.6 ml dry acetonitrile) was then added and the reaction heated for a further 4 minutes at 80° C. The reaction was then cooled to 50° C. and a sample removed for analysis by ITLC (Instant thin layer chromatography) on TLC aluminium sheets silica gel 60 F254 eluting with 95% acetonitrile, 5% water. The radiochemical purity was calculated from the ratio of 1,3,4,6-tetra-O-acetyl-2-fluoro-β-D-mannopyranose to the total of the sugar and free fluoride (the sole two components from the reaction).

[3] = Appearance/organoleptic test after storage; type: physicochemical; details: dry powder; 2 weeks storage at 50° C.
Description: as §1, §2

[4] = Radiolabelling with 18F- in a glassy carbon reactor after storage (pFDG RCP), Examples 1 and 2; type: physicochemical; details: storage time 0 weeks, MT 20 mg in 1.6 ml acetonitrile
Description: as §1
Radioactive methods (hot) performed: Radiolabelling with ^18F^− in a glassy carbon reactor (all pull points). Each dry sample of mannose triflate (20 mg) is dissolved in dry acetonitrile (1.6 ml). For the mannose triflate stored in acetonitrile, an aliquot (3.3 ml) was removed and diluted to 4.0 ml with acetonitrile and 1.6 ml of this solution was used in the radiolabelling test. For the samples taken after 2 weeks storage at 50° C., a 1.6 ml sample of the mannose triflate solution was used directly without further dilution. In all cases, the radiolabelling was performed after drying an ^18F solution of Kryptofix 2.2.2 (19.4 mg), potassium carbonate (41.0 mg), acetonitrile (0.32 ml) and water (0.04 ml) for 4 minutes at 80° C. before adding the test solution of mannose triflate in acetonitrile. The labelling reaction was carried out at 80° C. for 4 minutes in a glassy carbon reactor. […]
Using similar method to Example 1, the stability of mannose triflate in acetonitrile with water at level of approximately 725, 1450, and 2500 ppm was evaluated. […]

[5] = dry powder at 5° C.; cited from earlier work

Structure (SMILES): CC(=O)OC[C@H]1O[C@@H](OC(C)=O)[C@@H](OS(=O)(=O)C(F)(F)F)[C@@H](OC(C)=O)[C@@H]1OC(C)=O [mannose triflate, 1,3,4,6-tetra-O-acetyl-2-O-trifluoromethanesulfonyl-β-D-mannopyranose]
- HPLC-UV detection of mannose triflate [1]: no mannose triflate was detected
- IR identity (IR of stored dry powder): no longer mannose triflate
- % RCP ([2]; 0 days under air, listed as Dry powder mannose triflate): 87% and 86%
- % RCP ([2]; 1 day @ room temperature under dry N2, listed as Dry powder mannose triflate): 82% and 93%
- % RCP ([2]; 5 days @ 50° C. under air): 5%
- % RCP ([2]; 127 days @ 25° C. under air): 1%
- stability of dry powder (conclusion from RCP data) ([2]; room temperature, much worse at 50° C.): significant instability
- Appearance/organoleptic [3]: black and smelled strongly of acetic acid
- pFDG RCP % ([4]; listed as Control (N2)): 82% and 93%
- pFDG RCP % ([4]; listed as Control (air)): 87% and 86%
- shelf life [5]: 6 months
